According to patent US20230257396A1, “MACROCYCLES AND THEIR USE” (BLOSSOMHILL THERAPEUTICS, INC., priority 2020, published 2023):

Experiments:
Assay in all cases: KINOMEscan kinase binding assay (Eurofins/DiscoveRx), % Ctrl
Details in all cases: 1 μM
[1] = target: T1, kinases (Homo sapiens, UniProt P00519, E255K)
T1 construct: purchased Eurofins/DiscoveRx; host or cells: E. coli BL21-derived host (T7 phage display) for most kinases; HEK-293 for the rest
Method in brief: (§1)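 Competition binding, 1 h RT: phage-tagged or HEK-293-expressed DNA-tagged kinase + immobilized ligand + compound. Eluate kinase by qPCR. % Ctrl = (test − positive ctrl)/(negative ctrl − positive ctrl) × 100; lower means stronger binding.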

[2] = target: T2, kinases (Homo sapiens, UniProt P00519, F317I)
T2 construct: purchased Eurofins/DiscoveRx; host or cells: E. coli BL21-derived host (T7 phage display) for most kinases; HEK-293 for the rest
Method in brief: as §1

[3] = target: T3, kinases (Homo sapiens, UniProt P00519, H396P)
T3 construct: purchased Eurofins/DiscoveRx; host or cells: E. coli BL21-derived host (T7 phage display) for most kinases; HEK-293 for the rest
Method in brief: as §1

[4] = target: T4, kinases (Homo sapiens, UniProt P00519, T315I)
T4 construct: purchased Eurofins/DiscoveRx; host or cells: E. coli BL21-derived host (T7 phage display) for most kinases; HEK-293 for the rest
Method in brief: as §1

[5] = target: T5, kinases (Homo sapiens, UniProt P00533, DEL752-759)
T5 construct: purchased Eurofins/DiscoveRx; host or cells: E. coli BL21-derived host (T7 phage display) for most kinases; HEK-293 for the rest
Method in brief: as §1

[6] = target: T6, kinases (Homo sapiens, UniProt P00533, G719S)
T6 construct: purchased Eurofins/DiscoveRx; host or cells: E. coli BL21-derived host (T7 phage display) for most kinases; HEK-293 for the rest
Method in brief: as §1

[7] = target: T7, kinases (Homo sapiens, UniProt P00533, L858R)
T7 construct: purchased Eurofins/DiscoveRx; host or cells: E. coli BL21-derived host (T7 phage display) for most kinases; HEK-293 for the rest
Method in brief: as §1

[8] = target: T8, kinases (Homo sapiens, UniProt P07949)
T8 construct: purchased Eurofins/DiscoveRx; host or cells: E. coli BL21-derived host (T7 phage display) for most kinases; HEK-293 for the rest
T8 sequence (P07949 29-1114): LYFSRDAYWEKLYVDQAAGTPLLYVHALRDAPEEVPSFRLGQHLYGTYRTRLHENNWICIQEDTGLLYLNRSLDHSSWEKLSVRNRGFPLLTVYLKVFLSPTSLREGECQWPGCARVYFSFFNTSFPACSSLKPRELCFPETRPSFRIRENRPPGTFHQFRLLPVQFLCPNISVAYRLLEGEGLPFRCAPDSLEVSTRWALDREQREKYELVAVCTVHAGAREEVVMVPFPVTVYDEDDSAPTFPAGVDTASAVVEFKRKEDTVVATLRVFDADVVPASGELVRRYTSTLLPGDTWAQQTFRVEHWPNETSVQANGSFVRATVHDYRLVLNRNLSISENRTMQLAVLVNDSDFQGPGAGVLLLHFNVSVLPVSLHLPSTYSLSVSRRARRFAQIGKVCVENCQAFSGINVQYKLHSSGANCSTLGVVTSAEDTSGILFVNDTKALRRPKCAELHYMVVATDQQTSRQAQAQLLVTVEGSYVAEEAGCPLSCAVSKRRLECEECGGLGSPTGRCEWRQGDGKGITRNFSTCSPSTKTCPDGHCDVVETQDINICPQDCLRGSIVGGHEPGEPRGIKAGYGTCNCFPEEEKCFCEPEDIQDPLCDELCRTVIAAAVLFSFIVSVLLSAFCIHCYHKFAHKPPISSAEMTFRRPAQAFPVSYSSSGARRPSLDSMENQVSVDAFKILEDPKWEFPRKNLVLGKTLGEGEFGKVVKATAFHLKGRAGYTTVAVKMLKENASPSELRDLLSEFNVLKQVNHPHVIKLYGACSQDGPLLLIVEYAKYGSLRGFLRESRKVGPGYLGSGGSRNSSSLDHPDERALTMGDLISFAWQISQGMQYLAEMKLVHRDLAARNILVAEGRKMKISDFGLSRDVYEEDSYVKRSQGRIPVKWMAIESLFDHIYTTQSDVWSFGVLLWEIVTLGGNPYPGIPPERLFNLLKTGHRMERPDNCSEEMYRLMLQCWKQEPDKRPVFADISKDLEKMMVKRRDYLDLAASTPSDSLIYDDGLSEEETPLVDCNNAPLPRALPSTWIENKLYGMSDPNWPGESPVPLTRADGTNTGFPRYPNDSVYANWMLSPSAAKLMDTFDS
Method in brief: as §1

[9] = target: T9, kinases (Homo sapiens, UniProt P07949, M918T)
T9 construct: purchased Eurofins/DiscoveRx; host or cells: E. coli BL21-derived host (T7 phage display) for most kinases; HEK-293 for the rest
T9 sequence (P07949 29-1114 M918T): as the sequence (P07949 29-1114) above, with M890T counted along it
Method in brief: as §1

[10] = target: T10, kinases (Homo sapiens, UniProt P09619)
T10 construct: purchased Eurofins/DiscoveRx; host or cells: E. coli BL21-derived host (T7 phage display) for most kinases; HEK-293 for the rest
T10 sequence (P09619 33-1106): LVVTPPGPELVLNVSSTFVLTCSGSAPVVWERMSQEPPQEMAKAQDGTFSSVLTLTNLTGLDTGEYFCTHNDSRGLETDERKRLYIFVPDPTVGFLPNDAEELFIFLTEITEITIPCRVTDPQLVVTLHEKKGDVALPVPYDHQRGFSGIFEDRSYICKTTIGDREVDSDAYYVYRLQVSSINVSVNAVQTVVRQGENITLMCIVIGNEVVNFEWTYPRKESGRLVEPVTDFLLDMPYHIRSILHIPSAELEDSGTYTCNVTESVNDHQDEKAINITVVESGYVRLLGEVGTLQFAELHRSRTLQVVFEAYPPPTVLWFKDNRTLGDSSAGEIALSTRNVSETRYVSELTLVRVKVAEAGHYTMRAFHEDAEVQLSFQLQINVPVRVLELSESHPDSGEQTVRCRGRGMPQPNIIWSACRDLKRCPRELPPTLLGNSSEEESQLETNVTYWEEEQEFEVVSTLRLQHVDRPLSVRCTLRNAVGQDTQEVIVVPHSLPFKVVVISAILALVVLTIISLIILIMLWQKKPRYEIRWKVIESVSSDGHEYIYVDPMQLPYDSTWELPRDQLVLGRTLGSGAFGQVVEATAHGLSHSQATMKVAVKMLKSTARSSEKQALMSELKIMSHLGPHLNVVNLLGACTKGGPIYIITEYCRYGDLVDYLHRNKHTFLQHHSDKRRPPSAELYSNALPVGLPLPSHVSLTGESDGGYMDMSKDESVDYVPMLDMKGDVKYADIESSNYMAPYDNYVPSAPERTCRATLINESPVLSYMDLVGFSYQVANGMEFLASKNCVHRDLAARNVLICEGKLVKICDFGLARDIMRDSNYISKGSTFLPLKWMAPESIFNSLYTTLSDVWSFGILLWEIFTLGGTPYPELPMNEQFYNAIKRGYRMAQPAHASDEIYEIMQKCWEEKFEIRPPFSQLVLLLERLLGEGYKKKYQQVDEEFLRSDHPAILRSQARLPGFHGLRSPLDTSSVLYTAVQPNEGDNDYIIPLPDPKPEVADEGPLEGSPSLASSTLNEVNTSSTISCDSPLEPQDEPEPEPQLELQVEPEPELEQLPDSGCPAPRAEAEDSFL
Method in brief: as §1

[11] = target: T11, kinases (Homo sapiens, UniProt P10721, D816H)
T11 construct: purchased Eurofins/DiscoveRx; host or cells: E. coli BL21-derived host (T7 phage display) for most kinases; HEK-293 for the rest
T11 sequence (P10721 26-976 D816H): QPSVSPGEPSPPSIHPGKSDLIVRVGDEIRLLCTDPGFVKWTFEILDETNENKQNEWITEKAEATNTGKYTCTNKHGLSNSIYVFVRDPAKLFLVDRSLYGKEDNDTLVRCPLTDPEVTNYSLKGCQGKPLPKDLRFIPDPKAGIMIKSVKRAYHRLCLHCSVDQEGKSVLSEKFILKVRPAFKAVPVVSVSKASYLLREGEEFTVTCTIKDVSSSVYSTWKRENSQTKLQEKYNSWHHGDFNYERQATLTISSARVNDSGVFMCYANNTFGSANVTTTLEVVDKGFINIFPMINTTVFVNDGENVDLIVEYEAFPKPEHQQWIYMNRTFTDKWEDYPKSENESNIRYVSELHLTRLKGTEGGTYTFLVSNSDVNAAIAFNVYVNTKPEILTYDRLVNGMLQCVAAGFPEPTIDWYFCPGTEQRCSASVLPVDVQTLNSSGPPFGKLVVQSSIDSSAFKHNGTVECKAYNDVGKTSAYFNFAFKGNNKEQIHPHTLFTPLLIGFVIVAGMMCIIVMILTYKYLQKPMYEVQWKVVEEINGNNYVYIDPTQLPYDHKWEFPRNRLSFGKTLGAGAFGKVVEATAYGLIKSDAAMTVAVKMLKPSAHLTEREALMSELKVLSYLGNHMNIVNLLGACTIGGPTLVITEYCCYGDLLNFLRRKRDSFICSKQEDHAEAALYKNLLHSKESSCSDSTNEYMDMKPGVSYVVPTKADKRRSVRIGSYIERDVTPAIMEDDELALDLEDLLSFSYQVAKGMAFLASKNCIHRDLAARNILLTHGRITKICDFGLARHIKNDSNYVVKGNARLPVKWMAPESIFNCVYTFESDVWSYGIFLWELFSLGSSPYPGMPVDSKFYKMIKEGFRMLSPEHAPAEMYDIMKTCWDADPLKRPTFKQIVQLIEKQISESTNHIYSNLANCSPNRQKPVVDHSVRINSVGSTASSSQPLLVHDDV
Method in brief: as §1

[12] = target: T12, kinases (Homo sapiens, UniProt P10721, L576P)
T12 construct: purchased Eurofins/DiscoveRx; host or cells: E. coli BL21-derived host (T7 phage display) for most kinases; HEK-293 for the rest
T12 sequence (P10721 26-976 L576P): as the sequence (P10721 26-976 D816H) above, with L551P, H791D counted along it
Method in brief: as §1

[13] = target: T13, kinases (Homo sapiens, UniProt P10721, V559D)
T13 construct: purchased Eurofins/DiscoveRx; host or cells: E. coli BL21-derived host (T7 phage display) for most kinases; HEK-293 for the rest
T13 sequence (P10721 26-976 V559D): as the sequence (P10721 26-976 D816H) above, with V534D, H791D counted along it
Method in brief: as §1

[14] = target: T14, kinases (Homo sapiens, UniProt P16234)
T14 construct: purchased Eurofins/DiscoveRx; host or cells: E. coli BL21-derived host (T7 phage display) for most kinases; HEK-293 for the rest
T14 sequence (P16234 24-1089): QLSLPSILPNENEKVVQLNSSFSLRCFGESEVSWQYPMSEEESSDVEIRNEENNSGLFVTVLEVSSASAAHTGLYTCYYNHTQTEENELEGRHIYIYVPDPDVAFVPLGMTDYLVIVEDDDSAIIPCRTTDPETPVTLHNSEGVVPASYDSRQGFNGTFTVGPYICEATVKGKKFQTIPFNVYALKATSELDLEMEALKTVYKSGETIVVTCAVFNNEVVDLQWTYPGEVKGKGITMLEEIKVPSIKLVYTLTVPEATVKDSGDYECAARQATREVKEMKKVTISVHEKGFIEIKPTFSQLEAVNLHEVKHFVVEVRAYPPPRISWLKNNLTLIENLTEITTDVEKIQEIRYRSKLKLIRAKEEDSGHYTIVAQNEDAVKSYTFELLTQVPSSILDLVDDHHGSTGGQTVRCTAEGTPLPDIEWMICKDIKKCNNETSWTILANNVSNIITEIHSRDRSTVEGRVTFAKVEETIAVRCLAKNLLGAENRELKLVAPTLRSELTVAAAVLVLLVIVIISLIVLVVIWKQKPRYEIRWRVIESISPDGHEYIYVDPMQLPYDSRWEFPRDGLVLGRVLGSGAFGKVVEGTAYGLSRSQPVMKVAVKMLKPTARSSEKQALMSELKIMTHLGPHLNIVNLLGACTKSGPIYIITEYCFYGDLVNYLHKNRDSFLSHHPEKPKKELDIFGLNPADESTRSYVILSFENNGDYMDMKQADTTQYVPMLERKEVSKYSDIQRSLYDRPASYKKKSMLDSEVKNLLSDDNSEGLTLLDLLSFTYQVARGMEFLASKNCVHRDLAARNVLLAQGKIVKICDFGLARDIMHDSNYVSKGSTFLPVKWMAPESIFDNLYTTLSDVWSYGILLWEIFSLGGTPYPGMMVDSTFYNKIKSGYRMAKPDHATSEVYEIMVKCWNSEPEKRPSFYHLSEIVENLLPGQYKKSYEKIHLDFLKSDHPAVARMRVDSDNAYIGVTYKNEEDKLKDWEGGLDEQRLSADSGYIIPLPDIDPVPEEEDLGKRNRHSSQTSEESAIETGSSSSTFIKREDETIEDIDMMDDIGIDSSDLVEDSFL
Method in brief: as §1

[15] = target: T15, kinases (Homo sapiens, UniProt P36888, D835Y)
T15 construct: purchased Eurofins/DiscoveRx; host or cells: E. coli BL21-derived host (T7 phage display) for most kinases; HEK-293 for the rest
T15 sequence (P36888 27-993 D835Y): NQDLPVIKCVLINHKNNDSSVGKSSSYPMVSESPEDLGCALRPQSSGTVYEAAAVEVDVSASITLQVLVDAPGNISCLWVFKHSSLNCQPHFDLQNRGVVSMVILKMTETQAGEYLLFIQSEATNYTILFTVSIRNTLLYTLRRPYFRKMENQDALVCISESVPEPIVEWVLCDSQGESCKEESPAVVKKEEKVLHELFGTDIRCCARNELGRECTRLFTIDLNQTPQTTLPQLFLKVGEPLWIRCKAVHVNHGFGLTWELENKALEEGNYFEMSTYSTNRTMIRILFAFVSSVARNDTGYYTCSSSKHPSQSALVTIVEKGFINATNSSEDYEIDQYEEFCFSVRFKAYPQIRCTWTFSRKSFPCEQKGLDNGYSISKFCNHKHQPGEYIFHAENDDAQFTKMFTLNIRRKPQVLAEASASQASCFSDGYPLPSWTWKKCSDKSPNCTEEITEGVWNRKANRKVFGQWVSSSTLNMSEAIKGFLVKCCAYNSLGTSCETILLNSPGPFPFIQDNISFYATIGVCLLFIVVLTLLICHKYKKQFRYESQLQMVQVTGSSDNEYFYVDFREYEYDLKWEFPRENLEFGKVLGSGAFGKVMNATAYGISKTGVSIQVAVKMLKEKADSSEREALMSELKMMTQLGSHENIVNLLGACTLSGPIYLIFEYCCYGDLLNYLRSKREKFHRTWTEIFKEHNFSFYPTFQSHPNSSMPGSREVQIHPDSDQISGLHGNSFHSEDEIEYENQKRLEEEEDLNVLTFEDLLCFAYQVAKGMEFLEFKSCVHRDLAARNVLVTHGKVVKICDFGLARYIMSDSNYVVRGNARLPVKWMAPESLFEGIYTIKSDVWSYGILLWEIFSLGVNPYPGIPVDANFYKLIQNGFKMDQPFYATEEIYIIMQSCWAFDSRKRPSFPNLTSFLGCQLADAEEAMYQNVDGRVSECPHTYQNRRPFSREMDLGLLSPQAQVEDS
Method in brief: as §1

| SMILES | % Ctrl, ABL1(E255K)-phosphorylated ([1]; ABL1(E255K)-phosphorylated) | % Ctrl, ABL1(F317I)-nonphosphorylated ([2]; ABL1(F317I)-nonphosphorylated) | % Ctrl, ABL1(F317I)-phosphorylated ([2]; ABL1(F317I)-phosphorylated) | % Ctrl, ABL1(H396P)-nonphosphorylated ([3]; ABL1(H396P)-nonphosphorylated) | % Ctrl, ABL1(H396P)-phosphorylated ([3]; ABL1(H396P)-phosphorylated) | % Ctrl, ABL1(T315I)-nonphosphorylated ([4]; ABL1(T315I)-nonphosphorylated) | % Ctrl, ABL1(T315I)-phosphorylated ([4]; ABL1(T315I)-phosphorylated) | % Ctrl, EGFR(S752-I759del) ([5]; EGFR(S752-I759del)) | % Ctrl, EGFR(G719S) ([6]; EGFR(G719S)) | % Ctrl, EGFR(L858R) ([7]; EGFR(L858R)) | % Ctrl, RET ([8]; RET) | % Ctrl, RET(M918T) ([9]; RET(M918T)) | % Ctrl, PDGFRB ([10]; PDGFRB) | % Ctrl, KIT(D816H) ([11]; KIT(D816H)) | % Ctrl, KIT(L576P) ([12]; KIT(L576P)) | % Ctrl, KIT(V559D) ([13]; KIT(V559D)) | % Ctrl, PDGFRA ([14]; PDGFRA) | % Ctrl, FLT3(D835Y) ([15]; FLT3(D835Y)) | other results |
| --- | --- | --- | --- | --- | --- | --- | --- | --- | --- | --- | --- | --- | --- | --- | --- | --- | --- | --- | --- |
| Cc1cc2c([nH]1)/C=C1\C(=O)Nc3cnc(nc31)N(C)CCCOCCN(C)C2=O [Ex.71, [17a(18)Z]-2,5,12-trimethyl-6,7,9,10,11,12-hexahydro-1H-13,15-(azenometheno)dipyrrolo[3,2-f:3′,4′-i][1,4,11,13]oxatriazacyclohexadecine-4,17(5H,16H)-dione] | 85 % Ctrl | 100 % Ctrl | 100 % Ctrl | 100 % Ctrl | 98 % Ctrl | 100 % Ctrl | 100 % Ctrl | 74 % Ctrl | 76 % Ctrl | 9 % Ctrl | 96 % Ctrl | 91 % Ctrl | 98 % Ctrl | 100 % Ctrl | 100 % Ctrl | 100 % Ctrl | 100 % Ctrl | 94 % Ctrl |  |
| Cc1cc2c([nH]1)/C=C1\C(=O)Nc3ccc(cc31)-c1cnn(C)c1CNCCN(C)C2=O [Ex. 125, [3a(4)Z]-6,9,14-trimethyl-9,10,11,12,13,14-hexahydro-1,17-(ethanediylidene)pyrazolo[4,3-m]dipyrrolo[3,2-f:3′,4′-i][1,4]diazacyclopentadecine-3,8(2H,5H)-dione] | 0.05 % Ctrl | 0 % Ctrl | 0.75 % Ctrl | 0 % Ctrl | 0.1 % Ctrl | 0 % Ctrl | 0.1 % Ctrl | 73 % Ctrl | 88 % Ctrl | 48 % Ctrl | 0 % Ctrl | 0 % Ctrl | 0.4 % Ctrl | 0.65 % Ctrl | 5.9 % Ctrl | 35 % Ctrl | 7.7 % Ctrl | 0 % Ctrl |  |
| Cc1cc2c([nH]1)/C=C1\C(=O)Nc3cc(Cl)c(cc31)OCCO[C@@H](C(=O)N1CCN(C)CC1)CN(C)C2=O [Ex. 138, [7R,16a(17)Z]-19-chloro-2,5-dimethyl-7-(4-methylpipearazine-1-carbonyl)-6,7,9,10-tetrahydro-1H-12,14-(ethanediylidene)dipyrrolo[3,2-i:3′,4′-l][1,4,7]dioxazacyclopentadecine-4,16(5H,15H)-dione] |  |  |  |  |  |  |  |  |  |  |  |  |  |  |  |  |  |  | % Ctrl, ABL1(E255K)-phosphorylated ([1]; target ABL1(E255K)-phosphorylated): 61 % Ctrl; % Ctrl, ABL1(F317I)-nonphosphorylated ([2]; target ABL1(F317I)-nonphosphorylated): 86 % Ctrl; % Ctrl, ABL1(F317I)-phosphorylated ([2]; target ABL1(F317I)-phosphorylated): 100 % Ctrl; % Ctrl, ABL1(H396P)-nonphosphorylated ([3]; target ABL1(H396P)-nonphosphorylated): 69 % Ctrl; % Ctrl, ABL1(H396P)-phosphorylated ([3]; target ABL1(H396P)-phosphorylated): 82 % Ctrl; % Ctrl, ABL1(T315I)-nonphosphorylated ([4]; target ABL1(T315I)-nonphosphorylated): 87 % Ctrl; % Ctrl, ABL1(T315I)-phosphorylated ([4]; target ABL1(T315I)-phosphorylated): 76 % Ctrl; % Ctrl, EGFR(S752-I759del) ([5]; target EGFR(S752-I759del)): 92 % Ctrl; % Ctrl, EGFR(G719S) ([6]; target EGFR(G719S)): 95 % Ctrl; % Ctrl, EGFR(L858R) ([7]; target EGFR(L858R)): 78 % Ctrl; % Ctrl, RET ([8]; target RET): 63 % Ctrl; % Ctrl, RET(M918T) ([9]; target RET(M918T)): 72 % Ctrl; % Ctrl, PDGFRB ([10]; target PDGFRB): 95 % Ctrl; % Ctrl, KIT(D816H) ([11]; target KIT(D816H)): 82 % Ctrl; % Ctrl, KIT(L576P) ([12]; target KIT(L576P)): 69 % Ctrl; % Ctrl, KIT(V559D) ([13]; target KIT(V559D)): 97 % Ctrl; % Ctrl, PDGFRA ([14]; target PDGFRA): 75 % Ctrl; % Ctrl, FLT3(D835Y) ([15]; target FLT3(D835Y)): 45 % Ctrl |
| Cc1cc2c([nH]1)/C=C1\C(=O)Nc3cc(Cl)c(cc31)OCCO[C@@H](C(=O)NC1CNC1)CN(C)C2=O [Ex. 133, [7R,16a(17)Z]-N-(azetidin-3-yl)-19-chloro-2,5-dimethyl-4,16-dioxo-4,5,6,7,9,10,15,16-octahydro-1H-12,14-(ethanediylidene)dipyrrolo[3,2-i:3′,4′-l][1,4,7]dioxazacyclopentadecine-7-carboxamide] | 70 % Ctrl | 93 % Ctrl | 89 % Ctrl | 49 % Ctrl | 67 % Ctrl | 94 % Ctrl | 78 % Ctrl | 90 % Ctrl | 99 % Ctrl | 95 % Ctrl | 24 % Ctrl | 26 % Ctrl | 60 % Ctrl | 43 % Ctrl | 8.7 % Ctrl | 47 % Ctrl | 70 % Ctrl | 3.1 % Ctrl |  |
| Cc1cc2c([nH]1)/C=C1\C(=O)Nc3ccc(cc31)-c1cnn(C)c1COCCN(C)C2=O [Ex. 124, [3a(4)Z]-6,9,14-trimethyl-10,11,13,14-tetrahydro-2H-1,17-(ethanediylidene)pyrazolo[4,3-m]dipyrrolo[3,2-f:3′,4′-i][1,4]oxazacyclopentadecine-3,8(5H,9H)-dione] | 0 % Ctrl | 0 % Ctrl | 1.5 % Ctrl | 0.5 % Ctrl | 0 % Ctrl | 0 % Ctrl | 0.1 % Ctrl | 68 % Ctrl | 97 % Ctrl | 58 % Ctrl | 0 % Ctrl | 0 % Ctrl | 0.35 % Ctrl | 0.4 % Ctrl | 4.2 % Ctrl | 36 % Ctrl | 7.9 % Ctrl | 5.6 % Ctrl |  |
